Data reported in ChEMBL document CHEMBL1201862, “PubChem BioAssay data set” (2004).
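How tested: cells in 96-well plates exposed to compound for 48 hours at five concentrations. GI50: concentration for 50% inhibition of growth.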 The source made the active and inactive calls. Rule as the data show it: active = GI50 up to about 1.1 µM and inactive = higher.

What was measured:
Assay in all cases: NCI-60 cell line screen, 48 h
SNB-75 = test system: SNB-75
U-251 = test system: U-251
HT-29 = test system: HT-29
COLO 205 = test system: COLO 205
OVCAR-5 = test system: OVCAR-5
OVCAR-4 = test system: OVCAR-4
SW-620 = test system: SW-620
SF-268 = test system: SF-268
MDA-MB-435 = test system: MDA-MB-435
Hs-578T = test system: Hs-578T
RPMI-8226 = test system: RPMI-8226
UACC-257 = test system: UACC-257
MCF7 = test system: MCF7
MDA-N = test system: MDA-N
K562 = test system: K562
NCI-H460 = test system: NCI-H460
SNB-19 = test system: SNB-19
UACC-62 = test system: UACC-62
SN12C = test system: SN12C
XF498 = test system: XF498

SMILES	GI50 (SNB-75)	GI50 (U-251)	GI50 (HT-29)	GI50 (COLO 205)	GI50 (OVCAR-5)	GI50 (OVCAR-4)	GI50 (SW-620)	GI50 (SF-268)	GI50 (MDA-MB-435)	GI50 (Hs-578T)	GI50 (RPMI-8226)	GI50 (UACC-257)	GI50 (MCF7)	GI50 (MDA-N)	GI50 (K562)	GI50 (NCI-H460)	GI50 (SNB-19)	GI50 (UACC-62)	GI50 (SN12C)	GI50 (XF498)
CC1(C)CC(C#Cc2ccccc2)CC(C)(C)N1O	16.9 µM (inactive)	23.9 µM (inactive)	14.2 µM (inactive)	20.6 µM (inactive)	22.1 µM (inactive)	43.4 µM (inactive)	19.6 µM (inactive)	20.7 µM (inactive)	21.6 µM (inactive)	19 µM (inactive)	5.18 µM (inactive)	16.6 µM (inactive)	16.5 µM (inactive)	15.8 µM (inactive)	22.8 µM (inactive)	18.3 µM (inactive)	30.5 µM (inactive)	17.2 µM (inactive)	15.1 µM (inactive)	–
C[As](C)SCC(NC(=O)CCC(N)C(=O)O)C(=O)NCC(=O)O.c1ccncc1 (configuration not stated)	2.7 µM (inactive)	0.902 µM (active)	0.431 µM (active)	0.105 µM (active)	0.436 µM (active)	0.592 µM (active)	0.0855 µM (active)	0.547 µM (active)	0.0843 µM (active)	0.336 µM (active)	0.0421 µM (active)	0.459 µM (active)	0.126 µM (active)	0.0431 µM (active)	0.0266 µM (active)	2.38 µM (inactive)	3.68 µM (inactive)	0.269 µM (active)	0.506 µM (active)	–
CC(=O)OCC1OC(Nc2ccc3nc(C)n(-c4ccccc4)c(=O)c3c2)C(OC(C)=O)C(OC(C)=O)C1OC(C)=O (configuration not stated)	> 50 µM (inactive)	> 50 µM (inactive)	> 50 µM (inactive)	> 50 µM (inactive)	> 50 µM (inactive)	> 50 µM (inactive)	> 50 µM (inactive)	> 50 µM (inactive)	> 50 µM (inactive)	> 50 µM (inactive)	5.61 µM (inactive)	> 50 µM (inactive)	> 50 µM (inactive)	> 50 µM (inactive)	32.1 µM (inactive)	15.5 µM (inactive)	> 50 µM (inactive)	41.3 µM (inactive)	> 50 µM (inactive)	–
CN=C(n1ccnc1)n1ccnc1	> 100 µM (inactive)	> 100 µM (inactive)	> 100 µM (inactive)	> 100 µM (inactive)	> 100 µM (inactive)	> 100 µM (inactive)	> 100 µM (inactive)	> 100 µM (inactive)	> 100 µM (inactive)	> 100 µM (inactive)	> 100 µM (inactive)	> 100 µM (inactive)	> 100 µM (inactive)	> 100 µM (inactive)	> 100 µM (inactive)	> 100 µM (inactive)	> 100 µM (inactive)	> 100 µM (inactive)	> 100 µM (inactive)	–
CC(=O)N1C2=CCCC2(C)c2ccccc21 (configuration not stated)	38.3 µM (inactive)	> 100 µM (inactive)	63.5 µM (inactive)	57.9 µM (inactive)	> 100 µM (inactive)	77.6 µM (inactive)	> 100 µM (inactive)	> 100 µM (inactive)	> 100 µM (inactive)	> 100 µM (inactive)	10.7 µM (inactive)	68.7 µM (inactive)	> 100 µM (inactive)	> 100 µM (inactive)	33.8 µM (inactive)	72.8 µM (inactive)	> 100 µM (inactive)	80.4 µM (inactive)	70.5 µM (inactive)	–
O=C(O)c1ccccc1/N=N/c1ccc2oc(=O)c(C(=O)Nc3ccccc3)cc2c1	33 µM (inactive)	42.4 µM (inactive)	38.4 µM (inactive)	30.3 µM (inactive)	–	–	49.7 µM (inactive)	–	–	–	19.1 µM (inactive)	24.6 µM (inactive)	–	–	39.6 µM (inactive)	36.6 µM (inactive)	32.3 µM (inactive)	22.9 µM (inactive)	45.1 µM (inactive)	45.8 µM (inactive)
Cc1ccc2c(c1)CC1(Cc3c(C)cccc3C1=O)C2=O (configuration not stated)	36.7 µM (inactive)	87.5 µM (inactive)	> 100 µM (inactive)	> 100 µM (inactive)	> 100 µM (inactive)	> 100 µM (inactive)	> 100 µM (inactive)	> 100 µM (inactive)	> 100 µM (inactive)	22.6 µM (inactive)	> 100 µM (inactive)	> 100 µM (inactive)	> 100 µM (inactive)	> 100 µM (inactive)	> 100 µM (inactive)	> 100 µM (inactive)	37.6 µM (inactive)	44.7 µM (inactive)	> 100 µM (inactive)	–
COc1nc(N=P(c2ccccc2)(c2ccccc2)c2ccccc2)cc(=O)[nH]1	> 100 µM (inactive)	> 100 µM (inactive)	> 100 µM (inactive)	> 100 µM (inactive)	> 100 µM (inactive)	> 100 µM (inactive)	> 100 µM (inactive)	> 100 µM (inactive)	> 100 µM (inactive)	> 100 µM (inactive)	> 100 µM (inactive)	> 100 µM (inactive)	> 100 µM (inactive)	> 100 µM (inactive)	> 100 µM (inactive)	> 100 µM (inactive)	> 100 µM (inactive)	> 100 µM (inactive)	> 100 µM (inactive)	–
N#CC12C(=O)N3C(=NC(c4ccccc4)NC3c3ccccc3)C1(C#N)C(c1ccccc1)NC1=C2CCC1 (configuration not stated)	> 100 µM (inactive)	> 100 µM (inactive)	> 100 µM (inactive)	> 100 µM (inactive)	> 100 µM (inactive)	> 100 µM (inactive)	> 100 µM (inactive)	> 100 µM (inactive)	> 100 µM (inactive)	> 100 µM (inactive)	> 100 µM (inactive)	> 100 µM (inactive)	> 100 µM (inactive)	> 100 µM (inactive)	63.5 µM (inactive)	> 100 µM (inactive)	> 100 µM (inactive)	> 100 µM (inactive)	> 100 µM (inactive)	–
N#Cc1c(N)c(-c2ccc(Cl)cc2)c(F)c2ccccc12	11.1 µM (inactive)	96.4 µM (inactive)	75.5 µM (inactive)	> 100 µM (inactive)	> 100 µM (inactive)	> 100 µM (inactive)	> 100 µM (inactive)	9.82 µM (inactive)	> 100 µM (inactive)	7.35 µM (inactive)	6.65 µM (inactive)	> 100 µM (inactive)	6.49 µM (inactive)	> 100 µM (inactive)	> 100 µM (inactive)	> 100 µM (inactive)	> 100 µM (inactive)	> 100 µM (inactive)	> 100 µM (inactive)	–
NCC(O)CN.Oc1c(Cl)c(Cl)c(Cl)c(Cl)c1Cl	22.1 µM (inactive)	18.8 µM (inactive)	17.8 µM (inactive)	21 µM (inactive)	18 µM (inactive)	35.9 µM (inactive)	25.2 µM (inactive)	29.2 µM (inactive)	34.4 µM (inactive)	33.9 µM (inactive)	22.8 µM (inactive)	21.2 µM (inactive)	32.9 µM (inactive)	24.4 µM (inactive)	27.9 µM (inactive)	18.7 µM (inactive)	21 µM (inactive)	19 µM (inactive)	20.3 µM (inactive)	–
Cc1c(C(=O)/C=C/c2c(Cl)cccc2Cl)c(=O)n(-c2ccccc2)n1C	–	0.0147 µM (active)	18 µM (inactive)	13.9 µM (inactive)	71.8 µM (inactive)	–	7 µM (inactive)	24.1 µM (inactive)	–	–	–	20.9 µM (inactive)	–	–	–	11.4 µM (inactive)	31.9 µM (inactive)	21.6 µM (inactive)	24.4 µM (inactive)	19.6 µM (inactive)
C=CCOn1c(C=C)nc2ccc(C)cc21	16 µM (inactive)	12.5 µM (inactive)	14.1 µM (inactive)	13.6 µM (inactive)	18.4 µM (inactive)	29.3 µM (inactive)	15.4 µM (inactive)	24 µM (inactive)	13.6 µM (inactive)	27.2 µM (inactive)	2.95 µM (inactive)	13.7 µM (inactive)	10.1 µM (inactive)	17.1 µM (inactive)	20.6 µM (inactive)	13.7 µM (inactive)	17.9 µM (inactive)	13.6 µM (inactive)	16.3 µM (inactive)	–
Cn1cncc1CC1COC(=O)C1C(O)c1ccccc1 (configuration not stated)	> 100 µM (inactive)	> 100 µM (inactive)	> 100 µM (inactive)	> 100 µM (inactive)	> 100 µM (inactive)	> 100 µM (inactive)	> 100 µM (inactive)	> 100 µM (inactive)	> 100 µM (inactive)	> 100 µM (inactive)	> 100 µM (inactive)	> 100 µM (inactive)	> 100 µM (inactive)	> 100 µM (inactive)	> 100 µM (inactive)	> 100 µM (inactive)	> 100 µM (inactive)	> 100 µM (inactive)	> 100 µM (inactive)	–
CCN(CC)CCCNc1[nH]c2ccccc2c2nc3ccc(OC)cc3c1-2	1.77 µM (inactive)	1.77 µM (inactive)	0.521 µM (active)	1.32 µM (inactive)	1.28 µM (inactive)	1.21 µM (inactive)	0.828 µM (active)	1.77 µM (inactive)	1.6 µM (inactive)	1.78 µM (inactive)	0.43 µM (active)	1.79 µM (inactive)	1.04 µM (active)	1.56 µM (inactive)	1.27 µM (inactive)	0.367 µM (active)	1.59 µM (inactive)	4.68 µM (inactive)	2.1 µM (inactive)	–
